Reference: ChEMBL document CHEMBL1156506, “Changes to the HIV long terminal repeat and to HIV integrase differentially impact HIV integrase assembly, activity, and the binding of strand transfer inhibitors” (J Biol Chem, 2007)

Legend:
Conditions in all cases: tested as the 3H-labelled form
[1] = system: Human immunodeficiency virus; assay: Inhibition of HIV wild type integrase assessed as strand transfer activity using U5 GTTC LTR by scintillation proximity assay relative to wild type LTR; set-up: scale not given: the % may be the effect or the level left
[2] = system: Human immunodeficiency virus; assay: Binding affinity to HIV wild type integrase using U5 GTTC LTR relative to wild type LTR
[3] = system: Human immunodeficiency virus type 1 integrase (Human immunodeficiency virus 1), Q7ZJM1 [N155H]; assay: Binding affinity to HIV recombinant integrase N155H mutant using U5 GTdA LTR relative to wild type LTR
[4] = system: Human immunodeficiency virus type 1 integrase (Human immunodeficiency virus 1), Q7ZJM1 [N155H]; assay: Binding affinity to HIV recombinant integrase N155H mutant using U5 TTCA LTR relative to wild type LTR
[5] = system: Human immunodeficiency virus type 1 integrase (Human immunodeficiency virus 1), Q7ZJM1 [N155H]; assay: Binding affinity to HIV recombinant integrase N155H mutant using U5 GddA LTR relative to wild type LTR
[6] = system: Human immunodeficiency virus type 1 integrase (Human immunodeficiency virus 1), Q7ZJM1 [N155H]; assay: Inhibition of HIV recombinant integrase N155H mutant assessed as specific strand transfer activity using U5 GTdA LTR by scintillation proximity assay relative to wild type LTR; set-up: scale not given: the % may be the effect or the level left
[7] = system: Human immunodeficiency virus; assay: Binding affinity to HIV wild type integrase using U5 GTGC LTR relative to wild type LTR
[8] = system: Human immunodeficiency virus; assay: Inhibition of HIV wild type integrase assessed as strand transfer activity using U5 GTCA LTR by scintillation proximity assay relative to wild type LTR; set-up: scale not given: the % may be the effect or the level left
[9] = system: Human immunodeficiency virus; assay: Binding affinity to HIV wild type integrase using U5 GTCC LTR relative to wild type LTR
[10] = system: Human immunodeficiency virus; assay: Inhibition of HIV wild type integrase assessed as strand transfer activity using U5 GTCACA LTR by scintillation proximity assay relative to wild type LTR; set-up: scale not given: the % may be the effect or the level left
[11] = system: Human immunodeficiency virus; assay: Binding affinity to HIV wild type integrase using U5 GTCACA LTR relative to wild type LTR
[12] = system: Human immunodeficiency virus; assay: Inhibition of HIV wild type integrase assessed as strand transfer activity using U5 GTCAGT LTR by scintillation proximity assay relative to wild type LTR; set-up: scale not given: the % may be the effect or the level left
[13] = system: Human immunodeficiency virus; assay: Binding affinity to HIV wild type integrase using U5 GTGT LTR relative to wild type LTR
[14] = system: Human immunodeficiency virus type 1 integrase (Human immunodeficiency virus 1), Q7ZJM1 [N155H]; assay: Inhibition of HIV recombinant integrase N155H mutant assessed as strand transfer activity using U5 TTCA LTR by scintillation proximity assay relative to wild type LTR; set-up: scale not given: the % may be the effect or the level left
[15] = system: Human immunodeficiency virus type 1 integrase (Human immunodeficiency virus 1), Q7ZJM1 [N155H]; assay: Inhibition of HIV recombinant integrase N155H mutant assessed as strand transfer activity using U5 ApTCA LTR by scintillation proximity assay relative to wild type LTR; set-up: scale not given: the % may be the effect or the level left
[16] = system: Human immunodeficiency virus type 1 integrase (Human immunodeficiency virus 1), Q7ZJM1 [N155H]; assay: Inhibition of HIV recombinant integrase N155H mutant assessed as strand transfer activity using U5 GddA LTR by scintillation proximity assay relative to wild type LTR; set-up: scale not given: the % may be the effect or the level left
[17] = system: Human immunodeficiency virus type 1 integrase (Human immunodeficiency virus 1), Q7ZJM1 [N155H]; assay: Inhibition of HIV recombinant integrase N155H mutant assessed as specific strand transfer activity using U5 GdCA LTR by scintillation proximity assay relative to wild type LTR; set-up: scale not given: the % may be the effect or the level left
[18] = system: Human immunodeficiency virus type 1 integrase (Human immunodeficiency virus 1), Q7ZJM1 [N155H]; assay: Inhibition of HIV recombinant integrase N155H mutant assessed as specific strand transfer activity using U5 TTCA LTR by scintillation proximity assay relative to wild type LTR; set-up: scale not given: the % may be the effect or the level left
[19] = system: Human immunodeficiency virus type 1 integrase (Human immunodeficiency virus 1), Q7ZJM1 [N155H]; assay: Inhibition of HIV recombinant integrase N155H mutant assessed as specific strand transfer activity using U5 ApTCA LTR by scintillation proximity assay relative to wild type LTR; set-up: scale not given: the % may be the effect or the level left
[20] = system: Human immunodeficiency virus type 1 integrase (Human immunodeficiency virus 1), Q7ZJM1 [Q148R]; assay: Inhibition of HIV recombinant integrase Q148R mutant assessed as strand transfer activity using U5 GTC LTR by scintillation proximity assay relative to wild type LTR; set-up: scale not given: the % may be the effect or the level left
[21] = system: Human immunodeficiency virus type 1 integrase (Human immunodeficiency virus 1), Q7ZJM1 [Q148R]; assay: Inhibition of HIV recombinant integrase Q148R mutant assessed as strand transfer activity using U5 TTCA LTR by scintillation proximity assay relative to wild type LTR; set-up: scale not given: the % may be the effect or the level left
[22] = system: Human immunodeficiency virus type 1 integrase (Human immunodeficiency virus 1), Q7ZJM1 [Q148R]; assay: Binding affinity to HIV recombinant integrase Q148R mutant using U5 GTCA LTR relative to wild type LTR
[23] = system: Human immunodeficiency virus type 1 integrase (Human immunodeficiency virus 1), Q7ZJM1 [Q148R]; assay: Binding affinity to HIV recombinant integrase Q148R mutant using U5 GTdA LTR relative to wild type LTR
[24] = system: Human immunodeficiency virus type 1 integrase (Human immunodeficiency virus 1), Q7ZJM1 [Q148R]; assay: Binding affinity to HIV recombinant integrase Q148R mutant using U5 TTCA LTR relative to wild type LTR
[25] = system: Human immunodeficiency virus type 1 integrase (Human immunodeficiency virus 1), Q7ZJM1 [Q148R]; assay: Binding affinity to HIV recombinant integrase Q148R mutant using U5 INTCA LTR relative to wild type LTR
[26] = system: Human immunodeficiency virus type 1 integrase (Human immunodeficiency virus 1), Q7ZJM1 [Q148R]; assay: Inhibition of U5 GTC LTR HIV recombinant integrase Q148R mutant assessed as specific strand transfer activity using by scintillation proximity assay relative to wild type LTR; set-up: scale not given: the % may be the effect or the level left
[27] = system: Human immunodeficiency virus type 1 integrase (Human immunodeficiency virus 1), Q7ZJM1 [Q148R]; assay: Inhibition of U5 GdCA LTR HIV recombinant integrase Q148R mutant assessed as specific strand transfer activity using by scintillation proximity assay relative to wild type LTR; set-up: scale not given: the % may be the effect or the level left
[28] = system: Human immunodeficiency virus; assay: Binding affinity to HIV wild type integrase using U5 GdC LTR relative to wild type LTR
[29] = system: Human immunodeficiency virus; assay: Binding affinity to HIV wild type integrase using U5 GTAA LTR relative to wild type LTR
[30] = system: Human immunodeficiency virus; assay: Inhibition of U5 GddA LTR HIV wild type integrase assessed as strand transfer activity using by scintillation proximity assay relative to wild type LTR; set-up: scale not given: the % may be the effect or the level left
[31] = system: Human immunodeficiency virus; assay: Binding affinity to HIV wild type integrase using U5 GCCA LTR relative to wild type LTR
[32] = system: Human immunodeficiency virus; assay: Inhibition of HIV wild type integrase assessed as strand transfer activity using U5 GACA LTR by scintillation proximity assay relative to wild type LTR; set-up: scale not given: the % may be the effect or the level left
[33] = system: Human immunodeficiency virus; assay: Inhibition of HIV wild type integrase assessed as strand transfer activity using U5 GGCA LTR by scintillation proximity assay relative to wild type LTR; set-up: scale not given: the % may be the effect or the level left
[34] = system: Human immunodeficiency virus; assay: Binding affinity to HIV wild type integrase using U5 GTCA/CC LTR relative to wild type LTR
[35] = system: Human immunodeficiency virus; assay: Inhibition of HIV wild type integrase assessed as strand transfer activity usingU5 GTCA/CT LTR by scintillation proximity assay relative to wild type LTR; set-up: scale not given: the % may be the effect or the level left
[36] = system: Human immunodeficiency virus; assay: Binding affinity to HIV wild type integrase using U5 GTCA/CT LTR relative to wild type LTR
[37] = system: Human immunodeficiency virus; assay: Binding affinity to HIV wild type integrase using U5 GTCA/C LTR relative to wild type LTR
[38] = system: Human immunodeficiency virus; assay: Inhibition of HIV wild type integrase assessed as specific strand transfer activity using U5 GTC LTR by scintillation proximity assay relative to wild type LTR; set-up: scale not given: the % may be the effect or the level left
[39] = system: Human immunodeficiency virus; assay: Inhibition of HIV wild type integrase assessed as specific strand transfer activity using U5 GTdA LTR by scintillation proximity assay relative to wild type LTR; set-up: scale not given: the % may be the effect or the level left
[40] = system: Human immunodeficiency virus; assay: Inhibition of HIV wild type integrase assessed as specific strand transfer activity using U5 GdCA LTR by scintillation proximity assay relative to wild type LTR; set-up: scale not given: the % may be the effect or the level left
[41] = system: Human immunodeficiency virus; assay: Inhibition of HIV wild type integrase assessed as specific strand transfer activity using U5 TTCA LTR by scintillation proximity assay relative to wild type LTR; set-up: scale not given: the % may be the effect or the level left
[42] = system: Human immunodeficiency virus; assay: Inhibition of HIV wild type integrase assessed as specific strand transfer activity using U5 GddA LTR by scintillation proximity assay relative to wild type LTR; set-up: scale not given: the % may be the effect or the level left
[43] = system: Human immunodeficiency virus; assay: Inhibition of HIV wild type integrase assessed as specific strand transfer activity using U5 GTTA LTR by scintillation proximity assay relative to wild type LTR; set-up: scale not given: the % may be the effect or the level left
[44] = system: Human immunodeficiency virus type 1 integrase (Human immunodeficiency virus 1), Q7ZJM1 [N155H]; assay: Inhibition of HIV recombinant integrase N155H mutant assessed as strand transfer activity using U5 GTC LTR by scintillation proximity assay relative to wild type LTR; set-up: scale not given: the % may be the effect or the level left

Cn1c(N2CCCCS2(=O)=O)nc(C(=O)NCc2ccc(F)cc2)c(O)c1=O [BMS-707035]
Activity [1]: 25%
Activity [2]: 25%
Activity [3]: 12%
Activity [4]: 1%
Activity [5]: 9%
Activity [6]: 35%
Activity [7]: 25%
Activity [8]: 75%
Activity [9]: 75%
Activity [10]: 75%
Activity [11]: 75%
Activity [12]: 75%
Activity [13]: 25%
Activity [14]: 4%
Activity [15]: 2%
Activity [16]: 0.6%
Activity [17]: 62%
Activity [18]: > 20%
Activity [19]: > 40%
Activity [20]: 19%
Activity [21]: 4%
Activity [22]: 3%
Activity [23]: 2%
Activity [24]: 1%
Activity [25]: 2%
Activity [26]: 83%
Activity [27]: 3%
Activity [28]: 36%
Activity [29]: 22%
Activity [30]: 1%
Activity [31]: 75%
Activity [32]: 75%
Activity [33]: < 25%
Activity [34]: 75%
Activity [35]: < 25%
Activity [36]: < 25%
Activity [37]: < 25%
Activity [38]: 100%
Activity [39]: 42%
Activity [40]: 103%
Activity [41]: 154%
Activity [42]: 3%
Activity [43]: 143%
Activity [44]: 90%
